Test results published in patent US11083732B2, “Use of negative modulators of GABA receptors containing alpha5 subunits as fast acting antidepressants” (University of Maryland, Baltimore, priority 2014, dated 2021).

What was measured:
TA-CA1 synapses = assay: Acute slice electrophysiology: fEPSPs at TA-CA1 synapses after in vivo injection; design: species or system rat
Method: Acute slice electrophysiology. Standard methods were used to prepare 400-μm-thick transverse hippocampal slices. Dissection and recording saline contained: 124 mM NaCl, 3 mM KCl, 1.25 mM NaH2PO4, 1.5 mM MgSO4, 2.5 mM CaCl2, 26 mM NaHCO3, and 10 mM glucose, bubbled with 95% O2/5% CO2. Slices were then transferred to a submersion-type recording chamber and perfused at 0.5 2 ml/min at 20-22° C. Picrotoxin (100 μM) and CGP52432 (2 μM) were included to block GABAA and GABAB receptors, and the CA3 region was removed with a scalpel. Because TA-CA1 synapses are electrotonically remote from CA1 cell somata, extracellular recording of local field excitatory postsynaptic potentials (fEPSPs) was used. Recording pipettes (3-5 MSΩ) contained extracellular saline and were placed in stratum lacunosum-moleculare (SLM) to record TA-CA1 responses. fEPSPs were amplified 1000×, filtered at 3 kHz, and digitized at 10 kHz. Concentric bipolar tungsten electrodes were placed >500 μm from the […] in SLM for TA afferents. Stimuli (100 μs) were delivered at 0.05 Hz.
As in previous work (Kallarackal et al., 2013), Mg2+-free saline was used to produce a robust NMDAR-mediated component of the fEPSP for quantification of AMPAR-mediated synaptic excitation. 3-5 consecutive responses were averaged and fEPSP slope was calculated over a 1-3 ms window. […] For NMDA responses, DNQX (50 μM) was bath applied for 15 min and the slope was calculated over a 3-5 ms window in the rising phase of the response, 5-10 ms after its initiation. […]
The inventors used extracellular electrophysiological recording of fEPSPs at TA-CA1 synapses in SLM of area CA1 in brain slices prepared from unstressed rats, rats subjected to ten days of CRS and given a vehicle injection 24 hrs earlier, and rats subjected to ten days of CRS and given an L-655,708 injection 24 hrs earlier (0.7 mg/kg, i.p.). These were the same rats used for the behavioral analyses in FIG. 6. fEPSPs were recorded in ACSF lacking added Mg2+ so as to unblock NMDA receptors. […]

[1] = system: chronically stressed rats; assay: Reversal of chronic stress-induced behavioral changes (SPT and SIT; CRS and CUS) overall; type: in vivo, rat
Description: Chronic restraint stress (CRS). Male Sprague Dawley rats (4-5 weeks-old; Harlan Laboratories) were placed in appropriately sized restraint tubes, highly restricting their movement for periods of four hours in a brightly lit lab, every day for ten days during the light phase of their diurnal cycle (Lim et al., 2012).
Chronic unpredictable stress (CUS). Male Sprague-Dawley rats (4-5 weeks-old; Harlan Laboratories) were randomly divided into control and CUS groups. Rats in the CUS group were individually housed. CUS animals were treated with two mild stressors every day for 5-6 weeks during their light phase (Willner et al., 1987). The stressors were randomly cycled to enhance unpredictability. […]
Sucrose preference test (SPT). […] Sucrose preference was calculated as amount of the sucrose solution consumed as a percentage of the total amount of liquid consumed. […]
Several hedonic behaviors in rodents are sensitive to chronic stress and are restored by chronic, but not acute, administration of SSRIs, providing one means to screen for potential antidepressant compounds. First, it was determined whether L-655,708 would rapidly (<24 hrs) restore normal hedonic behavior following chronic restraint stress (Watanabe et al., 1992; Lim et al., 2012), consistent with the rapid antidepressant-like actions of ketamine (Li et al., 2011). […]

[2] = slices from rats after 10 days CRS, L-655,708 0.7 mg/kg i.p. 24 hrs earlier

## CCOC(=O)c1ncn2c1[C@@H]1CCCN1C(=O)c1cc(OC)ccc1-2 [L-655,708, ethyl (13aS)-7-methoxy-9-oxo-11, 12,13,13 a-terahydro-9H-imidazo[1,5-a]pyrrolo[2,1-c] [1,4]benzodiazepine-1-carboxylate]
TA-CA1 synapses; slices from CRS rats, L-655,708 24 hrs earlier, compared to vehicle-treated CRS animals
  AMPA:NMDA ratio: significantly higher
TA-CA1 synapses; [2]
  AMPAR-mediated signaling at TA-CA1 synapses (slope of AMPAR component of fEPSP): reversed rapidly
  slope of the NMDA component of the fEPSP: no corresponding difference
[1]; CRS and CUS, 0.7 mg/kg i.p., model-independent
  time to reversal of chronic stress-induced depressive-like behavioral changes: less than 24 hrs
[1]; single injection, l mg/kg intraperitoneally, CUS and CRS
  time to reversal of loss of sucrose preference and decrease in social interaction: ≤ 24 h
